# Test system: Parc-overexpressing (Flag-Parc/U2OS) cells
# Test: Subcellular p53 localization by immunofluorescent staining (anti-p53 1801)
# Format: cell-based, human
# Settings: etoposide 1 μM for 6 hours
# Source text: FIGS. 10A and 10B Parc over-expression abrogates stress-induced nuclear localization of endogenous p53 in U2OS cells. […] The etoposide-treated cells were immunostained with anti-p53 antibody (1801) (visualized by fluorescence) and counterstained with DAPI to visualize the nuclei. (B) Quantification of subcellular p53 localization in parental U2OS and in Parc-overexpressing (Flag-Parc/U2OS) cell lines after the cells were immunostained with the anti-p53 antibody (1801).
# For the p53 cytoplasmic sequestration assay, cells were transfected with 30 ng/well CMV-p53 and 150 ng/well CMV-Parc. 24 hours post-transfection cells were fixed with 4% paraformaldehyde for 20 min. on ice, rehydrated for 5 min in serum-free DMEM and permeabilized with 0.2% Triton X100 (Fisher) for 10 min on ice. Cells were incubated in 1% bovine serum albumin (BSA) (Sigma)/Phosphate Buffered Salt solution (PBS) (Cellgro) for 30 min. Primary p53-specific monoclonal (for endogenous p53 immunostaining) (DO-1, 1801, Santa Cruz) or polyclonal (for transfected p53 immunostaining) (FL-393, Santa Cruz) antibodies or anti-Flag monoclonal antibody (for transfected Flag-Parc and Flag-Myc immunostaining) (Santa Cruz) were added in 1% BSA/PBS for 45 min at room temperature. […]
smiles,measurement,value
COc1cc([C@@H]2c3cc4c(cc3[C@@H](O[C@@H]3O[C@@H]5CO[C@@H](C)O[C@H]5[C@H](O)[C@H]3O)[C@H]3COC(=O)[C@H]23)OCO4)cc(OC)c1O [etoposide],cells with nuclear p53 staining,less than 30%

# Source: patent US20040029134A1, “P53-associated Parkin-like cytoplasmic protein, and related compositions and methods” (priority 2002, published 2004)
